{"source": "patent US3992371A", "about": "“Penicillins substituted with heterocyclic and substituted phenyl groups” (Sumitomo Chemical Company, Limited, priority 1973, dated 1976)", "key": {"[1]": {"test_system": "Pseudomonas aeruginosa 104", "assay": "Minimal inhibitory concentration, agar dilution method", "format": "cell-based", "from_the_text": "When determined according to the agar dilution method, the penicillins (I) afford the minimal inhibitory concentrations against test microorganisms as shown in Table 2."}, "[2]": {"test_system": "gram-positive and gram-negative bacteria", "conditions": "background statement; cited from earlier work"}, "Pseudomonas": {"test_system": "Pseudomonas", "conditions": "background statement; cited from earlier work"}}}
{"smiles": "CC1(C)S[C@@H]2C(NC(=O)C(N)c3ccccc3)C(=O)N2[C@H]1C(=O)O", "note": "(stereo partly drawn) [Ampicillin, 6-(α-amino-phenylacetamido)penicillanic acid]", "values": [{"measurement": "MIC", "setting": "[1]", "result": "> 500", "unit": "µg/mL"}, {"measurement": "inhibition of the growth of gram-positive and gram-negative bacteria", "setting": "[2]", "result": "inhibit the growth of various gram-positive and gram-negative bacteria"}, {"measurement": "antimicrobial activity against Pseudomonas", "setting": "Pseudomonas", "result": "do not exert any appreciable antimicrobial activity against Pseudomonas"}]}
{"smiles": "CC1(C)S[C@@H]2[C@H](NC(=O)C3(N)CCCCC3)C(=O)N2[C@H]1C(=O)O", "note": "[Cyclacillin, 6-(1-amino-cyclohexanecarboxamide)penicillanic acid]", "values": [{"measurement": "inhibition of the growth of gram-positive and gram-negative bacteria", "setting": "[2]", "result": "inhibit the growth of various gram-positive and gram-negative bacteria"}, {"measurement": "antimicrobial activity against Pseudomonas", "setting": "Pseudomonas", "result": "do not exert any appreciable antimicrobial activity against Pseudomonas"}]}
{"smiles": "CC1(C)S[C@@H]2[C@H](NC(=O)[C@H](N)C3=CCC=CC3)C(=O)N2[C@H]1C(=O)O", "note": "[Epicillin]", "values": [{"measurement": "inhibition of the growth of gram-positive and gram-negative bacteria", "setting": "[2]", "result": "inhibit the growth of various gram-positive and gram-negative bacteria"}, {"measurement": "antimicrobial activity against Pseudomonas", "setting": "Pseudomonas", "result": "do not exert any appreciable antimicrobial activity against Pseudomonas"}]}
